Measurements: US20150315241A1, “Antibiotic Peptides” (priority 2007, published 2015)
In brackets after ≈: the same amount, converted by molar mass. Like-named read-outs stand apart in the source and are kept apart here. Where a SMILES comes first, the peptide text is derived from it. Where no end group is shown, it is not given here. [ ]: non-standard residue; d: D form. Arg(NO2) = N=C(NCCC[C@H](N)C(=O)O)N[N+](=O)[O-]; NMeR = CN[C@@H](CCCNC(=N)N)C(=O)O; Hyp = O=C(O)[C@@H]1C[C@@H](O)CN1; Cit = NC(=O)NCCC[C@H](N)C(=O)O; Orn = NCCC[C@H](N)C(=O)O

Columns and labels:
M. luteus ATCC 10240 = format: cell-based, Micrococcus luteus
Description: (§1) The minimal inhibition concentrations (MIC) of the apidaecin-derived peptides and peptide-derivatives were determined by a growth inhibition assay using a serial peptide dilution in sterilized round-bottom 96-well plates (polystyrene, U-bottom, Greiner Bio-One GmbH) with a final volume of 100 μL per well. The bacteria, e.g., E. coli BL21 A1, were grown in nutrient broth (NB, Carl Roth GmbH+Co. KG, Karlsruhe, Germany) at 37° C. over night. To each well of the 96-well plate, 50 μL of the overnight culture adjusted to 5×10^6 CFU/mL in 1% TSB were added. Lyophilized peptides and peptidomimetics were dissolved in 1% TSB (tryptic soy broth) or water to give a final concentration of 250 μg/mL. Fifty μL of the peptide or peptidomimetics solution were added to the first well of a row on the plate and mixed. Fifty μL of the first well containing the peptide solution were transferred to the second well, mixed and again 50 μL transferred to the next well and so on. Thereby, a two-fold dilution series was obtained starting at 250 μg/mL in the first well down to 120 ng/mL in the 12th well of a row giving a final peptide or peptidomimetics concentration from 125 μg/mL (well 1) to 60 ng/mL (well 12). Plates were incubated at 37° C. for 20 hrs. The absorbance was measured at 595 nm using a TECAN micro plate spectrophotometer (Tecan, Germany). All peptides and peptidomimetics were measured in triplicates. Sterilized water was used as a negative control.
(§2) The bacteria strains were tested: • Eschericha coli 1103, 10233, BL 21 AI, DC 2, • Klebsiella pneumoniae 681, • Micrococcus luteus ATCC 10240, • Mycobacterium vaccae • Bactillus subtillis 347.

E. coli D31 = format: cell-based, Escherichia coli; conditions: D31, 20 h
Description: as §1
(§3) The following multidrug resistant bacteria strains were tested: • Eschericha coli 45849 and D31, • Klebsiella pneumoniae 123132 and K6, • Salmonella typhi S5 and Salmonella enterica subsp. enterica serovar Typhimurium (ATCC 700408), • Rhizobium radiobacter (ATCC 15955 deposited as Agrobacterium tumefaciens).

[1] = system: K. Pneumonia K6, ATCC 700603; experiment: Growth inhibition assay (MIC); format: cell-based, Klebsiella pneumoniae; conditions: multidrug resistant strain; 1% TSB, 37° C., 20 hrs
Description: as §1, §3

E. coli BL 21 AI = experiment: Growth inhibition assay (MIC); format: cell-based, Escherichia coli; conditions: 1% TSB, 37° C., 20 hrs
Description: as §1, §2

[2] = system: S. enterica subsp. Enterica serovar. typhi G10215 ATCC 700408; format: cell-based, Salmonella enterica; conditions: ATCC 700408, 20 h
Description: as §1, §3

Molecule | MIC M. luteus ATCC 10240 (M. luteus ATCC 10240; ATCC 10240, 20 h) | MIC E. coli D31 (E. coli D31) | MIC K. Pneumonia K6, ATCC 700603 [1] | MIC E. coli BL 21 AI (E. coli BL 21 AI) | MIC S. enterica subsp. Enterica serovar. typhi G10215 ATCC 700408 [2] | MIC M. luteus ATCC 10240 (M. luteus ATCC 10240; 1% TSB, 37° C., 20 hrs)
CC[C@H](C)[C@H](NC(=O)[C@H](CCCNC(=N)N)NC(=O)[C@@H]1CCCN1C(=O)[C@H](Cc1c[nH]cn1)NC(=O)[C@@H]1CCCN1C(=O)[C@@H]1CCCN1C(=O)[C@H](CCCNC(=N)N)NC(=O)[C@@H]1CCCN1C(=O)[C@H](CCCNC(=N)N)NC(=O)[C@@H]1CCCN1C(=O)[C@@H](NC(=O)[C@H](Cc1ccc(O)cc1)NC(=O)[C@@H](NC(=O)[C@@H]1CCCN1C(=O)[C@H](CCCNC(=N)N)NC(=O)[C@H](CC(N)=O)NC(=O)[C@H](CC(N)=O)NC(=O)[C@@H](N)CCCN)C(C)C)[C@@H](C)CC)C(N)=O [compound 16] (H-[Orn]NNRPVYIPRPRPPHPRI-NH2) | 3.91 µg/mL (≈ 1.78 µM) | 128 µg/mL (≈ 58.4 µM) | 32 µg/mL (≈ 14.6 µM) | 0.98 µg/mL (≈ 0.447 µM) | 2 µg/mL (≈ 0.912 µM) | 
CC[C@H](C)[C@H](NC(=O)[C@H](Cc1ccc(O)cc1)NC(=O)[C@@H](NC(=O)[C@@H]1CCCN1C(=O)[C@H](CCCNC(=N)N)NC(=O)[C@H](CC(N)=O)NC(=O)[C@H](CC(N)=O)NC(=O)[C@H](CCCN)NC(C)=O)C(C)C)C(=O)N1CCC[C@H]1C(=O)N[C@@H](CCC(N)=O)C(=O)N1CCC[C@H]1C(=O)N[C@@H](CCCNC(=N)N)C(=O)N1CCC[C@H]1C(=O)N1CCC[C@H]1C(=O)N[C@@H](Cc1c[nH]cn1)C(=O)N1CCC[C@H]1C(=O)N[C@@H](CCCNC(=N)N)C(=O)N[C@@H](CC(C)C)C(=O)OC [compound 50] (Ac-[Orn]NNRPVYIPQPRPPHPRL-OMe) |  | >128 µg/mL | >128 µg/mL |  | 32 µg/mL (≈ 14.4 µM) | 
CC[C@H](C)[C@H](NC(=O)[C@H](Cc1ccc(O)cc1)NC(=O)[C@@H](NC(=O)[C@@H]1CCCN1C(=O)[C@H](CCCNC(=N)N)NC(=O)[C@H](CC(N)=O)NC(=O)[C@H](CC(N)=O)NC(=O)[C@H](CCCN)NC(C)=O)C(C)C)C(=O)N1CCC[C@H]1C(=O)N[C@@H](CCCN)C(=O)N1C[C@H](O)C[C@H]1C(=O)N[C@@H](CCCNC(=N)N)C(=O)N1CCC[C@H]1C(=O)N1CCC[C@H]1C(=O)N[C@@H](Cc1c[nH]cn1)C(=O)N1CCC[C@H]1C(=O)N[C@@H](CCCNC(=N)N)C(=O)N[C@@H](CC(C)C)C(N)=O [compound 103] (Ac-[Orn]NNRPVYIP[Orn][Hyp]RPPHPRL-NH2) |  |  |  | 1.95 µg/mL (≈ 0.883 µM) |  | 3.91 µg/mL (≈ 1.77 µM)
CC[C@H](C)[C@H](NC(=O)[C@H](Cc1ccc(O)cc1)NC(=O)[C@@H](NC(=O)[C@@H]1CCCN1C(=O)[C@H](CCCNC(=N)N)NC(=O)[C@H](CC(N)=O)NC(=O)[C@H](CC(N)=O)NC(=O)[C@@H](N)CCCN)C(C)C)C(=O)N1CCC[C@H]1C(=O)N[C@@H](CCCNC(=N)N)C(=O)N1CCC[C@H]1C(=O)N[C@@H](CCCNC(=N)N)C(=O)N1CCC[C@H]1C(=O)N1CCC[C@H]1C(=O)N[C@@H](Cc1c[nH]cn1)C(=O)N1CCC[C@H]1C(=O)N[C@@H](CCCNC(N)=O)C(=O)N[C@@H](CC(C)C)C(N)=O [compound 138] (H-[Orn]NNRPVYIPRPRPPHP[Cit]L-NH2) | 64 µg/mL (≈ 29.2 µM) |  |  | 64 µg/mL (≈ 29.2 µM) |  | 
CC[C@H](C)[C@H](NC(=O)[C@H](Cc1ccc(O)cc1)NC(=O)[C@@H](NC(=O)[C@@H]1CCCN1C(=O)[C@H](CCCNC(=N)N)NC(=O)[C@H](CC(N)=O)NC(=O)[C@H](CC(N)=O)NC(=O)CNC(C)=O)C(C)C)C(=O)N1CCC[C@H]1C(=O)N[C@@H](CCC(N)=O)C(=O)N1CCC[C@H]1C(=O)N[C@@H](CCCNC(=N)N)C(=O)N1CCC[C@H]1C(=O)N1CCC[C@H]1C(=O)N[C@@H](Cc1c[nH]cn1)C(=O)N1CCC[C@H]1C(=O)N[C@@H](CCCNC(N)=O)C(=O)N[C@@H](CC(C)C)C(N)=O [compound 148] (Ac-GNNRPVYIPQPRPPHP[Cit]L-NH2) | >125 µg/mL |  |  | >125 µg/mL |  | 
CC[C@H](C)[C@H](NC(=O)[C@H](Cc1ccc(O)cc1)NC(=O)[C@@H](NC(=O)[C@@H]1CCCN1C(=O)[C@H](CCCNC(=N)N)NC(=O)[C@H](CC(N)=O)NC(=O)[C@H](CC(N)=O)NC(=O)[C@H](CCCN)NC(C)=O)C(C)C)C(=O)N1CCC[C@H]1C(=O)N[C@@H](CCCNC(=N)N)C(=O)N1CCC[C@H]1C(=O)N[C@@H](CCCNC(=N)N)C(=O)N1CCC[C@H]1C(=O)N1CCC[C@H]1C(=O)N[C@@H](Cc1c[nH]cn1)C(=O)N1CCC[C@H]1C(=O)N[C@@H](CCCNC(N)=O)C(=O)N[C@@H](CC(C)C)C(N)=O [compound 150] (Ac-[Orn]NNRPVYIPRPRPPHP[Cit]L-NH2) | 32 µg/mL (≈ 14.3 µM) |  |  | 32 µg/mL (≈ 14.3 µM) |  | 
CC[C@H](C)[C@H](NC(=O)[C@H](Cc1ccc(O)cc1)NC(=O)[C@@H](NC(=O)[C@@H]1CCCN1C(=O)[C@H](CCCNC(=N)N)NC(=O)[C@H](CC(N)=O)NC(=O)[C@H](CC(N)=O)NC(=O)[C@H](CCCN)NC(C)=O)C(C)C)C(=O)N1CCC[C@H]1C(=O)N[C@@H](CCCNC(=N)N)C(=O)N1CCC[C@H]1C(=O)N[C@@H](CCCNC(=N)N)C(=O)N1CCC[C@H]1C(=O)N1CCC[C@H]1C(=O)N[C@@H](Cc1c[nH]cn1)C(=O)N1CCC[C@H]1C(=O)N[C@H](CCCNC(=N)N)C(=O)N[C@@H](CC(C)C)C(N)=O [compound 152] (Ac-[Orn]NNRPVYIPRPRPPHP[dR]L-NH2) | 32 µg/mL (≈ 14.3 µM) |  |  | 32 µg/mL (≈ 14.3 µM) |  | 
CC[C@H](C)[C@H](NC(=O)[C@H](Cc1ccc(O)cc1)NC(=O)[C@@H](NC(=O)[C@@H]1CCCN1C(=O)[C@H](CCCNC(=N)N)NC(=O)[C@H](CC(N)=O)NC(=O)[C@H](CC(N)=O)NC(=O)[C@H](CCCN)NC(C)=O)C(C)C)C(=O)N1CCC[C@H]1C(=O)N[C@@H](CCCNC(=N)N)C(=O)N1CCC[C@H]1C(=O)N[C@@H](CCCNC(=N)N)C(=O)N1CCC[C@H]1C(=O)N1CCC[C@H]1C(=O)N[C@@H](Cc1c[nH]cn1)C(=O)N1CCC[C@H]1C(=O)N(C)[C@@H](CCCNC(=N)N)C(=O)N[C@@H](CC(C)C)C(N)=O [compound 153] (Ac-[Orn]NNRPVYIPRPRPPHP[NMeR]L-NH2) | 32 µg/mL (≈ 14.2 µM) |  |  | 16 µg/mL (≈ 7.12 µM) |  | 
CC[C@H](C)[C@H](NC(=O)[C@H](Cc1ccc(O)cc1)NC(=O)[C@@H](NC(=O)[C@@H]1CCCN1C(=O)[C@H](CCCNC(=N)N)NC(=O)[C@H](CC(N)=O)NC(=O)[C@H](CC(N)=O)NC(=O)[C@H](CCCN)NC(C)=O)C(C)C)C(=O)N1CCC[C@H]1C(=O)N[C@@H](CCCNC(=N)N)C(=O)N1CCC[C@H]1C(=O)N[C@@H](CCCNC(=N)N)C(=O)N1CCC[C@H]1C(=O)N1CCC[C@H]1C(=O)N[C@@H](Cc1c[nH]cn1)C(=O)N1CCC[C@H]1C(=O)N[C@@H](CCCNC(N)=N[N+](=O)[O-])C(=O)N[C@@H](CC(C)C)C(N)=O [compound 154] (Ac-[Orn]NNRPVYIPRPRPPHP[Arg(NO2)]L-NH2) | 32 µg/mL (≈ 14 µM) |  |  | 16 µg/mL (≈ 7.02 µM) |  | 
GNNRPVYIPQPRPPHPL-NH2 [compound 43] |  | >128 µg/mL | >64 µg/mL |  | >64 µg/mL | 
GNNRPVYIPQPRPPHPRF-NH2 [compound 44] |  | 128 µg/mL | 64 µg/mL |  | 4 µg/mL | 
H-GNNRPVYIAQPRPPHPAL-NH2 [compound 136] | >125 µg/mL |  |  | >125 µg/mL |  | 
H-GNNRPVYIAQPRPPHPRL-NH2 [compound 140] | 125 µg/mL |  |  | >125 µg/mL |  | 
H-GNNRPVYIPQPRPPHPAL-NH2 [compound 139] | >125 µg/mL |  |  | >125 µg/mL |  | 
H-GNNRPVYIPQPRPPHPR-OH [compound 144] | >125 µg/mL |  |  | >125 µg/mL |  | 
H-GNNRPVYIPRPRPPHPRLV-OH [compound 69] | 0.24 µg/mL |  |  | 7.81 µg/mL |  | 
H-NNRPVYIPQPRPPHPRI-NH2 [compound 92] | 31.25 µg/mL |  |  | 3.91 µg/mL |  | 
H-RPVYIPQPRPPHPRL-NH2 [compound 142] | 125 µg/mL |  |  | 125 µg/mL |  | 
